From paper PMC8546421, “Molecular modelling of the FOXO4-TP53 interaction to design senolytic peptides for the elimination of senescent cancer cells” (EBioMedicine, 2021)
Where no end group is shown, it is not given here.

Assays:
[1] = tested on: senescent cells in the liver; assay: Systemic delivery to aged mice, liver SA-β-gal; assay type: in vivo, mouse; conditions: aged mice (82 weeks), 3 mg ES2 via tail vein weekly for three weeks, n=5, p=0.03
Procedure: Senescent and dividing cells or tissue sections were fixed with 4% formaldehyde. The cells were washed with PBS twice before staining with X-gal solution [1 mg/mL 5-bromo-4-chloro-3inolyl-β-D-galactoside (Boehringer Manneheim #745-740) in N,N-dimethylformamide, 5 mM potassium ferricyanide crystalline (#P-8131), 5 mM potassium […] (#P-3289), 2 mM magnesium chloride, and 1x PBS, pH 6.0. Cells or tissue sections were incubated at 37°C for 24 hours. After staining, cells were washed with PBS before being counted and imaged on the Leica Dmi8 microscope.
Mice were aged between 3-8 months and 20-30 g in weight and were housed in specific pathogen free cages. Animals were randomly distributed among treatment groups by assigning mice within the same cage to different treatment regimens. To minimise confounders, mouse treatment order was randomised within each cage. Male and female mice were distributed between all treatment groups since the chemicals used were directly injected and are not metabolized. Researchers were not blinded to the group allocation, but all attempts were made to analyse the data without knowing treatment conditions. […] Mice were then monitored daily and allowed to age until a humane endpoint was reached according to our IACUC protocol, which in this case was tumours of 2 cm in size. […]

[2] = tested on: DLD1 and SW480 cells; assay: ES2 viability (MTS) in TP53 mutant colorectal cancer cell lines; assay type: cell-based, human; conditions: DLD1 (S241F heterozygous), SW480 (R273H, P309S)
Procedure: Cell lines were treated with chemotherapy, doxorubicin (Sigma, Cat. No. 2252) to induce senescence (200 nM for HCT116, 100 nM for B16-F10 and MCF7, 50 nM for SW480 and DLD-1, 40 nM for A375-Luc/iRFP and MCF10a). MCF7 cells were treated with CDK4/6 inhibitor, palbociclib (Selleck Chemicals: S1116) to induce senescence (5 µM). A375 cells were treated with Braf inhibitor, Dabrafenib (Selleck Chemicals: S2807), to induce senescence (10 µM). Peptide efficacy experiments were performed by seeding 10,000 – 20,000 cells in a 96-well plate. The cells were given doxorubicin twice to make the cells senescent. After removal of doxorubicin, the plate was treated with varying concentrations of peptide. The peptide was replenished daily for two days. Cellular proliferation was quantified using the Promega CellTiter 96™ AQueous One Solution Cell Proliferation Assay (MTS) after 2 hours according to the manufacturer's protocol (Promega, G3581). To control for the charge of ES2, ProteoJuice (Millipore Sigma, 71281) was used to deliver ES2 using the manufacturers protocol, except 50 µL of 2 mM ES2 was mixed with 25 µL of ProteoJuice. Varying concentrations of the mixture were administered to A375 cells along with a control of only ProteoJuice.

Sequence: PRKGGRRRRAWGRRRRRRRRRRRRRRAPRKRLTLA [ES2]
- number of senescent cells in the liver (SA-β-gal activity) [1]: reduced the number of senescent cells in the liver by half
- cell death in senescent TP53 mutant cells [2]: effective at inducing cell death in senescent cells
